Data reported in US7157079B2, “Combined tumor suppressor gene therapy and chemotherapy in the treatment of neoplasms” (priority 1997, dated 2007).

What was measured:
[1] = test system: MRC-9 diploid fibroblast cells; experiment: 3H-thymidine incorporation growth assay in normal cells; type: cell-based; conditions: MRC-9 vs tumor cells; FIG. 9
Procedure: In a second experiment, the efficacy of treatment of normal cells (MRC-9 cells) was compared with tumor cells (FIG. 9). In this experiment, growth was assayed as ^3H-thymidine incorporation rather than the MTT assay. […] As would be expected, the effect of tumor suppressor alone was negligible in normal cells and highly significant in tumor cells.

[2] = test system: SK-OV-3 ovarian tumor cells; experiment: MTT cell death assay, p53 adenovirus combined with anti-cancer drug; type: cell-based, human; conditions: FIG. 1, TAXOL 0.001-20 μg/ml, p53 Ad 0.5-50 m.o.i., MTT on day 3
Procedure: In treatment three, the cells were contacted simultaneously with both the TAXOL® and the p53 adenovirus. Thus, the p53 Ad and TAXOL® can be administered within the same twenty four (24) hour period or concurrently.
Approximately 1.5×10^4 cells in culture medium (head and neck cell lines SCC-9, SCC-15, and SCC-25 in 1:1 mix of DMEM+ Ham's F12 media with 0;4 μg/ml cortisol and 10% FBS and 1% non-essential amino acids, prostate DU-145 and Ovarian SK-OV-3 in Eagles essential medium plus 10% FBS) were added to each well on a 96 well microtitre plate and cultured for about 4 hours at 37° C. and 5% CO2.
Cell death was then quantitated according to the method of Mosmann (1983) J. Immunol. Meth., 65: 55–63.
Dosing was performed as described above. Cell death was quantitated on day 3 using the MTT assay as described above. In addition, a dose response curve for p53 Ad alone (using the doses listed in Table 2) was generated (after […] cell exposure to the drug) and a dose response curve for TAXOL® alone was performed using the doses listed above (3 day cell exposure to the drug).
All cell lines were obtained from ATCC (Rockville, Md.). […]

[3] = test system: intraperitoneal SK-OV-3 tumors; experiment: SK-OV-3 ovarian tumor model, cisplatin efficacy; type: in vivo, scid mice; conditions: day 20
Procedure: There were normally ten mice per group.
Established intraperitoneal SK-OV-3 tumors were treated with intraperitoneal doses of vehicles, p53 Ad, cisplatin, or both drugs. Mice were given six injections of p53 Ad over a period of two weeks. The total virus dose was 1.5×10^9 C.I.U. (3.1×10^10 viral particles).
Cisplatin efficacy: Female scid mice were injected with 5×10^6 SK-OV-3 ovarian tumor cells, I.P., on day 0. Mice were dosed I.P. on days 6, 8, 10, 13, 15, and 17 (p53 Ad only on D17). Mice received 0.2 ml total volume (0.1 ml cisplatin vehicle or cisplatin plus 0.1 ml Ad buffer or p53 Ad). The p53 Ad dose was 2.5×10^8 C.I.U./mouse/day (5.2×10^9 viral particles). The cisplatin dose was 2 mg/kg/day. Tumors were harvested and weighed on day 20.

MDA-MB-231 tumors = experiment: Tumor growth with adenovirus in the absence or presence of low dose dexamethasone; conditions: s.c. pellet releasing 83.3 μg dexamethasone/day
Procedure: To investigate whether the immunosuppressant properties of low dose Dexamethasone (Dex) can inhibit the anti-adenovirus immune response (e.g., NK cell response) MDA-MB-231 tumors in scid mice were treated with recombinant virus of the invention in the absence and in the presence of dexamethasone.
Approximately 5×10^6 MDA-MB-231 cells/mouse were injected into the mammary fat pads of female scid mice on day 0. On day 11, dexamethasone or placebo pellets were implanted subcutaneously. The 5 mg pellets were designed to release 83.3 μg dexamethasone/day continuously for 60 days (Innovative Research of America, Sarasota, Fla.). All mice received a total of 10 peritumoral injections given once a day on days 14–18 and 21–25 (0.1 ml per injection).

| Structure (SMILES) | effect of anti-cancer chemotherapeutic alone, normal vs cancer cells [1] | also measured |
| --- | --- | --- |
| O=c1[nH]cc(F)c(=O)[nH]1 [5-FU, 5-fluorouracil] | more effective in normal cells than cancer cells |  |
| CC(=O)O[C@H]1C(=O)[C@@]2(C)[C@H]([C@H](OC(=O)c3ccccc3)[C@]3(O)C[C@H](OC(=O)[C@H](O)[C@@H](NC(=O)c4ccccc4)c4ccccc4)C(C)=C1C3(C)C)[C@]1(OC(C)=O)CO[C@@H]1C[C@@H]2O [TAXOL ®, paclitaxel] |  | inhibition of cell proliferation (as compared to the buffer control) [2]: decreased the rate of cell proliferation |
| N.N.[Cl][Pt][Cl] [cisplatin] | more effective in normal cells than cancer cells | bloody ascites and invasive tumor nodules in the diaphragm muscle [3]: absent |
| C[C@@H]1C[C@H]2[C@@H]3CCC4=CC(=O)C=C[C@]4(C)[C@@]3(F)[C@@H](O)C[C@]2(C)[C@@]1(O)C(=O)CO [dexamethasone] |  | adverse side effects (MDA-MB-231 tumors): No adverse side effects; effect on the growth rate of tumors (MDA-MB-231 tumors): no significant effect |
| COc1cccc2c1C(=O)c1c(O)c3c(c(O)c1C2=O)C[C@@](O)(C(=O)CO)C[C@@H]3O[C@H]1C[C@H](N)[C@H](O)[C@H](C)O1 [doxorubicin] | more effective in normal cells than cancer cells |  |
| COc1cc([C@@H]2c3cc4c(cc3[C@@H](O[C@@H]3O[C@@H]5CO[C@@H](C)O[C@H]5[C@H](O)[C@H]3O)[C@H]3COC(=O)[C@H]23)OCO4)cc(OC)c1O [etoposide] | more effective in normal cells than cancer cells |  |
| CN(Cc1cnc2nc(N)nc(N)c2n1)c1ccc(C(=O)N[C@@H](CCC(=O)O)C(=O)O)cc1 [methotrexate] | more effective in normal cells than cancer cells |  |
